Results from patent publication US5712265A (The General Hospital Corporation, priority 1995, dated 1998).
Counter-ions that a name gives are not always drawn. Like-named read-outs stand apart in the source and are kept apart here.

Columns and labels:
[1] = in vivo; cited from earlier work
[2] = tested on: 3-hydroxy-3-methylglutaryl coenzyme A (HMG-CoA) reductase; settings: cited from earlier work
[3] = cited from earlier work
[4] = 3.0 and 6.0 μg/kg intramuscularly at 11:00 pm; cited from earlier work
[5] = 7.5 to 20 mg daily by mouth; cited from earlier work
[6] = 2.5 mg once, cited from earlier work
[7] = in vivo; cited from earlier work; remark: listed apart in the source
[8] = in vivo; cited from earlier work; remark: listed apart in the source
[9] = 0.5 mg intramuscularly, cited from earlier work
[10] = 5 mg at 2230 h; cited from earlier work
[11] = in vivo; cited from earlier work; remark: listed apart in the source
[12] = Timed administration of methyl scopolamine, long-term effects (Example 7); format: in vivo, Sprague-Dawley rat; settings: for Retroperitoneal Fat: 0.5 mg/kg BW two weeks
Procedure: Methylscopolamine (MSC) (0.5 mg/kgBW) in 1 mL peanut butter was fed at light onset (AM) or at light offset (PM) to 9 Sprague-Dawley rats (30 weeks old) in each group daily for two weeks. Nine-other rats were fed only peanut butter. 18 days after the last treatment, the rats were sacrificed and the indices in Table 6 were measured.

[13] = 0.5 or 0.75 mg s.c., cited from earlier work
[14] = cited from earlier work; remark: listed apart in the source
[15] = for Cholesterol / HDL-Chol / Plasma Glucose / Plasma Insulin / Reproperitoneal Fat / Triglyceride: 18 days after last treatment; for Food Consumption: P 4 mg/kg or M 500 μg/kg oral, two weeks
Procedure: Forty male older Sprague-Dawley rats (6 months of age) were separated into 5 groups of 8 rats each. […] A control group (C) received peanut butter only daily at 0800 and 1800. Rat chow (Purina) was made available ad libitum. Treatment lasted two weeks. Blood samples were taken and retroperitoneal fat was dissected and weighed 18 days after the last day of treatment. This made it possible to assess long term effects of the treatment. […] All animals were fasted 6 hours prior to blood sampling and sacrifice.

[16] = tested on: adipose tissue cyclic AMP phosphodiesterase; settings: cited from earlier work
isolated fat cells = settings: in vitro; cited from earlier work
[17] = AM, 18 days after last treatment
[18] = PM, 18 days after last treatment
[19] = light-offset vs light-onset administration
[20] = dosed at 0800, 18 days post-treatment

For `CC[C@H](C)C(=O)O[C@H]1C[C@@H](C)C=C2C=C[C@H](C)[C@H](CC[C@@H]3C[C@@H](O)CC(=O)O3)[C@H]21` [lovastatin], the “increase in HDL concentrations” value [1] is listed as 5-10%, the total cholesterol [1] is listed as “specifically reduces total cholesterol” and the HMG-CoA reductase inhibition [2] is listed as “selectively inhibits”.
In the case of `CN1[C@@H]2C[C@@H](OC(=O)[C@H](CO)c3ccccc3)C[C@H]1[C@@H]1O[C@@H]12` [scopolamine], the “susceptibility to motion sickness” value ([3]; 0.01 mg/kg orally 2 h before rotation) is given as “significantly decreased”, the “hormone concentrations (ACTH, cortisol, STH, prolactin) vs placebo” value ([3]; 0.01 mg/kg orally) is given as “identical” and the “rapid eye movement latency” value [4] is given as “significant dose-related delay”.
In the case of `CC(C)C[C@H]1C(=O)N2CCC[C@H]2[C@]2(O)O[C@](NC(=O)[C@@H]3C=C4c5cccc6[nH]c(Br)c(c56)C[C@H]4N(C)C3)(C(C)C)C(=O)N12` [bromocriptine], the patients having aggravation [5] is given as 4, the “patients having improvement in glucose regulation” value [5] is given as “six” and the “patients showing no significant change” value [5] is given as 14. For the same compound, the plasma glucose concentration ([6]; 2 h prior to glucose challenge) was “decrease”, the Plasma Insulin [6] was “decrease with drug administration was significant” and the plasma prolactin levels [6] was “decreased markedly”.
For `CCOC(=O)C(C)(C)Oc1ccc(Cl)cc1` [clofibrate], the effectiveness [7] is listed as “varies from subject to subject” and the side effects [7] is listed as “nephrotic syndromes, myalgia, nausea and abdominal pain”.
In the case of `CN1CCN(CC(=O)N2c3ccccc3C(=O)Nc3cccnc32)CC1` [pirenzepine], the half-life [8] is given as “about 11 hours”.
For `C[N+]1(C)[C@@H]2C[C@@H](OC(=O)[C@H](CO)c3ccccc3)C[C@H]1[C@@H]1O[C@@H]12` [methyl scopolamine], the “overall and mean peak growth hormone levels during the night” value ([9]; 1/2 h before bedtime) is given as “dramatically reduced”, the insulin-induced hypoglycemia [9] is given as “did not affect sleep patterns or insulin-induced hypoglycemia” and the “prolactin levels during sleep” value [9] is given as “did not affect prolactin levels during sleep”. For the same compound, the sleep patterns [9] was “did not affect sleep patterns”, the dawn effect [10] was “decrease” and the “peak growth hormone concentrations after sleep” value [10] was “marked inhibition”. The half-life [8] was 4 to 6 h, the “effect of physostigmine on plasma pituitary hormones (cortisol, prolactin, ACTH)” value [11] was “inhibited” and the “Retroperitoneal Fat” value ([12]; AM (light onset), 18 days after last treatment) was 2.78 ± 0.08 g. For the same compound, the Cholesterol [12, 17] was 94.7 ± 4.9 mg/dL, the Glucose [12, 17] was 151.8 ± 19.6 mg/dL and the “HDL Cholesterol” value [12, 17] was 32.5 ± 4.1 mg/dL. The Insulin [12, 17] was 144.1 ± 5.9 μU/mL, the Triglycerides [12, 17] was 197 ± 18 mg/dL and the “Retroperitoneal Fat” value ([12]; PM (light offset), 18 days after last treatment) was 2.45 ± 0.07 g. The Cholesterol [12, 18] was 94.1 ± 5.7 mg/dL, the “HDL Cholesterol” value [12, 18] was 45.2 ± 4.2 mg/dL and the Insulin [12, 18] was 163.8 ± 2.7 μU/mL. For the same compound, the Triglycerides [12, 18] was 106 ± 21 mg/dL, the “persistence after cessation of treatment” value ([12]; Table 6) was “long-term effect that persists after cessation of the treatment” and the “glucose, change in words” value ([12]; light onset or offset) was “significantly reduced”. For the same compound, the “insulin, change in words” value ([12]; light onset or offset) was “significantly reduced”, the “retroperitoneal fat, change in words” value ([12]; light onset or offset) was “significantly reduced” and the “cholesterol, change in words” value [12, 19] was “significantly increased cholesterol”. The “insulin, change in words” value [12, 19] was “significantly reduced triglycerides and insulin”, the “triglycerides, change in words” value [12, 19] was “significantly reduced triglycerides” and the “HDL, change in words” value ([12]; only at light offset) was “increased HDL”. For the same compound, the “triglycerides, change in words” value ([12]; only at light offset) was “significantly reduced”, the “elevated AVP levels” value ([13]; after physostigmine) was “decreased” and the elevated cortisol levels ([13]; after physostigmine) was “decreased”. The elevated prolactin levels ([13]; after physostigmine) was “decreased”, the growth hormone secretion [13] was “inhibited” and the tolerability ([14]; chronic use of 5 mg) was “not particularly well tolerated by most patients”. The dawn phenomenon ([14]; given at bedtime) was “attenuated”, the “sleep induced growth hormone secretion” value ([14]; given at bedtime) was “suppressed” and the “food consumption, change in words” value ([15]; dosed at 0800) was “significant increase”. The “insulin resistance (plasma insulin and glucose), in words” value [15, 20] was “improved insulin resistance”, the “plasma lipid indices, change in words” value [15, 20] was “significantly reduced retroperitoneal body fat, plasma lipid indices” and the “retroperitoneal body fat, change in words” value [15, 20] was “significantly reduced retroperitoneal body fat”. The Cholesterol ([15]; dosed at 0800) was 96.8 ± 1.8 mg/dL, the HDL-Chol ([15]; dosed at 0800) was 43.9 ± 2.7 mg/dL and the “Plasma Glucose” value ([15]; dosed at 0800) was 158 ± 4. The “Plasma Insulin” value ([15]; dosed at 0800) was 118 ± 7, the “Reproperitoneal Fat” value ([15]; dosed at 0800) was 2.18 ± 0.31 g and the Triglyceride ([15]; dosed at 0800) was 90.0 ± 3.1 mg/dL. For the same compound, the “Food Consumption” value ([15]; dosed at 0800) was 17.5 ± 1.3 g/day, the Cholesterol ([15]; dosed at 1800) was 133.6 ± 1.9 mg/dL and the HDL-Chol ([15]; dosed at 1800) was 61.0 ± 1.9 mg/dL. The “Plasma Glucose” value ([15]; dosed at 1800) was 148 ± 7, the “Plasma Insulin” value ([15]; dosed at 1800) was 171 ± 14 and the “Reproperitoneal Fat” value ([15]; dosed at 1800) was 2.61 ± 0.19 g. For the same compound, the Triglyceride ([15]; dosed at 1800) was 188.0 ± 5.7 mg/dL, the “Food Consumption” value ([15]; dosed at 1800) was 14.9 ± 1.0 g/day and the “HDL-cholesterol, change in words” value ([15]; only with administration at 1800) was “increase”.
For `CN1[C@@H]2C[C@@H](OC(=O)[C@H](CO)c3ccccc3)C[C@H]1[C@@H]1O[C@@H]12` [scopolamine hydrobromide], the “adipose tissue cyclic AMP phosphodiesterase activity” value [16] is listed as “nor inhibited” and the “glycerol release from isolated fat cells” value (isolated fat cells) is listed as “did not significantly affect”.
